Test results from ChEMBL document CHEMBL3861984, “Synthesis and evaluation of 2,5 and 2,6 pyridine-based CXCR4 inhibitors” (Bioorg Med Chem, 2016).
Calls of active or inactive are those of the source. No cut-off for these calls is given here.

Key:
[1] = molecular target: T1, C-X-C chemokine receptor type 4 (Homo sapiens, UniProt P61073); experiment: Displacement of biotinylated-TN14003 from CXCR4 in human MDA-MB-231 cells assessed as reduction in fluorescence preincubated for 10 mins followed by biotinylated-TN14003 addition measured after 30 mins by streptavidin-rhodamine staining based microscopic analysis; type: cell-based
T1 sequence (P61073 whole entry): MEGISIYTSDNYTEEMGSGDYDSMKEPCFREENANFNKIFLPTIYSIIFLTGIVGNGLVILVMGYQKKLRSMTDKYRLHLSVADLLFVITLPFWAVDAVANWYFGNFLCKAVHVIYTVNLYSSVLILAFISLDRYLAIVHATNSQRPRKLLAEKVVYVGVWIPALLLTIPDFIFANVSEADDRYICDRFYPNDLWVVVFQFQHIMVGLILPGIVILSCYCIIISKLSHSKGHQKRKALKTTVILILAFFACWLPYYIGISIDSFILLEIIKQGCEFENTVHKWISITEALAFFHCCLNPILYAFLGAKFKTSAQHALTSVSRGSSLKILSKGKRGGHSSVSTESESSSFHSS

[2] = molecular target: T1, C-X-C chemokine receptor type 4; experiment: Inhibition of CXCR4/CXCL12 interaction-mediated chemotaxis in human MDA-MB-231 cells assessed as inhibition of cell invasion at 100 nM after 22 hrs by hematoxylin/eosin dye-based matrigel assay relative to control
Mus musculus [3] = experiment: Toxicity in carrageenan-induced paw edema C57BL/6J mouse model assessed as mortality at 10 mg/kg administered 30 mins after carrageenan challenge and then once daily following initial dose measured 74 hrs post inflammation induction and 2 hrs post last dose; type: organism-based; details: in vivo
Mus musculus [4] = experiment: Anti-inflammatory activity in C57BL/6J mouse assessed as suppression of carrageenan-induced paw edema at 10 mg/kg administered 30 mins after carrageenan challenge and then once daily following initial dose measured 74 hrs post inflammation induction and 2 hrs post last dose relative to control; type: functional
Mus musculus [5] = experiment: Antiinflammatory activity in C57BL/6J mouse paw assessed as reduction in carrageenan-induced paw edema volume at 10 mg/kg administered 30 mins after carrageenan challenge and then once daily following initial dose measured 74 hrs post inflammation induction and 2 hrs post last dose by hematoxylin and eosin-staining based assay; type: functional, organism-based

| Compound | EC [1] [nM] | inhibition [2] [%] | Activity (Mus musculus [3]) | inhibition in vivo at 10 mg/kg (Mus musculus [4]) [%] | IC50 [1] [nM] | Activity (Mus musculus [5]) |
| --- | --- | --- | --- | --- | --- | --- |
| FC(F)(F)c1cccc(NCc2cccc(CNc3cccc(C(F)(F)F)c3)n2)c1 | 1000 | 15 |  |  |  |  |
| FC(F)(F)c1ccccc1NCc1cccc(CNc2ccccc2C(F)(F)F)n1 | > 1000 |  |  |  |  |  |
| CCc1cccc(NCc2cccc(CNc3cccc(CC)c3)n2)c1 | 1000 |  |  |  |  |  |
| Fc1ccc(CNc2ccc(NCc3ccc(F)cc3)nc2)cc1 | > 1000 |  |  |  |  |  |
| Clc1cccc(NCc2cccc(CNc3cccc(Cl)c3)n2)c1 | 100 | 34 |  |  |  |  |
| COc1ccccc1NCc1cccc(CNc2ccccc2OC)n1 | 1000 | 0 |  |  |  |  |
| O=[N+]([O-])c1ccc(NCc2cccc(CNc3ccc([N+](=O)[O-])cc3)n2)cc1 | > 1000 |  |  |  |  |  |
| Clc1ccc(NCc2cccc(CNc3ccc(Cl)cc3)n2)cc1 | 100 | 21 |  |  |  |  |
| COc1cccc(NCc2cccc(CNc3cccc(OC)c3)n2)c1 | 100 | 37 | Non-Toxic | 20.1 |  |  |
| CSc1ccc(NCc2cccc(CNc3ccc(SC)cc3)n2)cc1 | > 1000 |  |  |  |  |  |
| Cc1cccc(NCc2ccc(CNc3cccc(C)c3)nc2)c1 | 1 | 58 | Non-Toxic |  |  |  |
| CCc1ccccc1NCc1cccc(CNc2ccccc2CC)n1 | 1 | 59 | Non-Toxic | 18.1 |  |  |
| Cc1ccccc1NCc1cccc(CNc2ccccc2C)n1 | > 1000 |  |  |  |  |  |
| Fc1cccc(NCc2ccc(CNc3cccc(F)c3)nc2)c1 | 1000 |  |  |  |  |  |
| Fc1ccccc1NCc1cccc(CNc2ccccc2F)n1 | 1000 |  |  |  |  |  |
| COc1ccc(NCc2cccc(CNc3ccc(OC)cc3)n2)cc1 | 100 | 5 |  |  |  |  |
| COc1ccccc1NCc1ccc(CNc2ccccc2OC)nc1 | 100 | < 5 |  |  |  |  |
| FC(F)(F)c1ccc(NCc2cccc(CNc3ccc(C(F)(F)F)cc3)n2)cc1 | 1 | 52 | Non-Toxic | 20.3 |  |  |
| CCOc1ccc(CNc2ccc(NCc3ccc(OCC)cc3)nc2)cc1 | 100 | 60 | Non-Toxic |  |  |  |
| Clc1cccc(CNc2ccc(NCc3cccc(Cl)c3)nc2)c1 | 1000 |  |  |  |  |  |
| CCc1ccc(NCc2cccc(CNc3ccc(CC)cc3)n2)cc1 | 1 | 64 | Non-Toxic | 42 | 19.6 |  |
| c1cc(CN2CCOCC2)nc(CN2CCOCC2)c1 | 10 | 63 | Non-Toxic | 39.1 | 35.7 |  |
| O=[N+]([O-])c1cccc(NCc2cccc(CNc3cccc([N+](=O)[O-])c3)n2)c1 | > 1000 |  |  |  |  |  |
| Fc1cccc(NCc2cccc(CNc3cccc(F)c3)n2)c1 | 10 | 50 | Non-Toxic | 20.3 |  | Active |
| Clc1ccccc1NCc1cccc(CNc2ccccc2Cl)n1 | > 1000 |  |  |  |  |  |
| Fc1ccc(NCc2cccc(CNc3ccc(F)cc3)n2)cc1 | 100 | 5 |  |  |  |  |
| c1ccc(NCc2cccc(CNc3ccccc3)n2)cc1 | 100 | < 1 |  |  |  |  |
| Cc1cccc(NCc2cccc(CNc3cccc(C)c3)n2)c1 | 100 | 60 | Non-Toxic | 20.2 |  |  |
| Cc1ccc(NCc2cccc(CNc3ccc(C)cc3)n2)cc1 | 1000 |  |  |  |  |  |
| COc1ccc(CNc2ccc(NCc3ccc(OC)cc3)nc2)cc1 | 1000 |  |  |  |  |  |
